Experimental data as given in US20110223202A1, “CATIONIC CORE-SHELL PEPTIDE NONOPARTICLES” (priority 2007, published 2011).
≈ marks a conversion by molar mass, not a printed value. Like-named read-outs stand apart in the source and are kept apart here. No end group written: not given here.

Experiments:
Assay type in all cases: cell-based
Bacillus subtilis = experiment: microbe, parasite or virus in culture; settings: read-out: MIC against Bacillus subtilis
Description: Bacillus subtilis, Candida albicans and Stachybotrys chartarum (ATCC) were grown in tryptic soy broth at 37° C., yeast mold broth at 24° C. and tryptic soy broth at 26° C., respectively. The MICs of the peptides or peptide nanoparticles were measured using a broth microdilution method. Briefly, 50 μL of peptide and peptide nanoparticle solutions with a concentration of 7.1 to 142 μM was placed into each well of 96-well plates. 50 μL of microorganism solution was added to each well to give an optical density reading of 0.1 to 0.2 at 600 nm. […] Broth containing cells alone was used as control. The tests were repeated three times.

Candida albicans = settings: broth microdilution, no growth observed
Description: (§1) Bacillus subtilis, Candida albicans and Stachybotrys chartarum (ATCC) were grown in tryptic soy broth at 37° C., yeast mold broth at 24° C. and tryptic soy broth at 26° C., respectively. The MICs of the peptides or peptide nanoparticles were measured using a broth microdilution method. Briefly, 50 μL of peptide and peptide nanoparticle solutions with a concentration of 7.1 to 142 μM was placed into each well of 96-well plates. 50 μL of microorganism solution was added to each well to give an optical density reading of 0.1 to 0.2 at 600 nm. The cell cultures were then incubated for 15, 12/16 and 170 hours for Bacillus subtilis, Candida albicans and Stachybotrys chartarum respectively, and the MIC was taken at the concentration at which no growth was observed. Broth containing cells alone was used as control. The tests were repeated three times.

Stachybotrys chartarum = experiment: microbe, parasite or virus in culture; settings: broth microdilution, no growth observed, read-out: MIC against Stachybotrys chartarum
Description: as §1

rat red blood cells = experiment: Hemolysis assay; settings: at concentrations lower than its MIC
Description: Fresh rat red blood cells were washed with PBS for three times. 100 μL of red blood cells suspended in PBS (4% in volume) was placed in each well of 96-well plates and 100 μL of peptide nanoparticle or amphotericin B solution was added to each well. The plates were incubated for one hour at 37° C. The cell suspensions were taken out and centrifuged at 1000 g for 5 minutes. Aliquots (100 μL) of supernatant were transferred to 96-well plates, and hemoglobin release was monitored at 576 nm using a microplate reader (Bio-Teck Instruments, Inc). Percentage of hemolysis was calculated using the following formula: Hemolysis (%)=[(O.D.576 nm in the nanoparticle solution−O.D.576 nm in PBS)/(O.D.576 nm in 0.1% Triton X-100−O.D.576 nm in PBS)]×100. In vivo studies.

[1] = broth microdilution, no growth observed

| Molecule | MIC (Bacillus subtilis; [1]) [µM] | MIC against Candida albicans (Candida albicans) [µM] | other results |
| --- | --- | --- | --- |
| N=C(N)NCCC[C@H](NC(=O)[C@H](CCCNC(=N)N)NC(=O)[C@H](CCCNC(=N)N)NC(=O)[C@H](CCCNC(=N)N)NC(=O)[C@H](CCCNC(=N)N)NC(=O)[C@H](CCCNC(=N)N)NC(=O)[C@H](CCCNC(=N)N)NC(=O)[C@H](CCCNC(=N)N)NC(=O)[C@H](CCCNC(=N)N)NC(=O)[C@H](CCCNC(=N)N)NC(=O)[C@H](CCCNC(=N)N)NC(=O)[C@H](CCCNC(=N)N)NC(=O)CNC(=O)CNC(=O)CN)C(N)=O [G3R12] | 242.0 (≈ 499 µg/mL) | 242.0 (≈ 499 µg/mL) | – |
| N=C(N)NCCC[C@H](NC(=O)[C@H](CCCNC(=N)N)NC(=O)[C@H](CCCNC(=N)N)NC(=O)[C@H](CCC(N)=O)NC(=O)[C@H](CCCNC(=N)N)NC(=O)[C@H](CCCNC(=N)N)NC(=O)[C@H](CCCCN)NC(=O)[C@H](CCCCN)NC(=O)[C@H](CCCNC(=N)N)NC(=O)CNC(=O)[C@H](Cc1ccc(O)cc1)NC(=O)CNC(=O)CNC(=O)CN)C(N)=O [G3TAT] | 290.0 (≈ 502 µg/mL) | 289.0 (≈ 500 µg/mL) | – |
| C[C@@H]1[C@H](O)[C@@H](C)/C=C/C=C/C=C/C=C/C=C/C=C/C=C/[C@H](O[C@@H]2O[C@H](C)[C@@H](O)[C@H](N)[C@@H]2O)C[C@@H]2O[C@](O)(C[C@@H](O)C[C@@H](O)[C@H](O)CC[C@@H](O)C[C@@H](O)CC(=O)O[C@H]1C)C[C@H](O)[C@H]2C(=O)O [amphotericin B] | – | – | MIC (Stachybotrys chartarum): > 54.0 µM; hemolysis (rat red blood cells): more than 90% |
| C[C@H]1c2cccc(O)c2C(=O)C2=C(O)[C@]3(O)C(=O)C(C(N)=O)=C(O)[C@@H](N(C)C)[C@@H]3[C@@H](O)[C@@H]21 [doxycycline] | – | – | MIC (Bacillus subtilis; Bacillus subtilis, FIG. 12, 16 hours of incubation): 13.5 µM (≈ 6 µg/mL) |
| OC(Cn1cncn1)(Cn1cncn1)c1ccc(F)cc1F [fluconazole] | – | – | MIC (Stachybotrys chartarum; Stachybotrys chartarum): > 817 µM |
| CC1(C)S[C@@H]2[C@H](NC(=O)Cc3ccccc3)C(=O)N2[C@H]1C(=O)O [penicillin G] | – | – | MIC (Bacillus subtilis; FIG. 12, 16 hours of incubation): 1074 µM (≈ 359 µg/mL) |
| GGGRRRRRR-NH2 (C-terminus assumed) [G3R6] | > 444.4 | > 444.4 | – |
| GGGRRRRRRYGRKKRRQRRR-NH2 [G3R6TAT] | 75.0 | 75.0 | – |
